Earlier results on 1 molecule are cited in patent US20050014730A1, “Anti-fungal formulation of triterpene and essential oil” (priority 2003, published 2005).

On to `C=C(C)[C@@H]1CC[C@]2(CO)CC[C@]3(C)[C@H](CC[C@@H]4[C@@]5(C)CC[C@H](O)C(C)(C)[C@@H]5CC[C@]43C)[C@@H]12` [betulin], for which the “solubility of betulin in water” value is reported as “about 0.15 mg/l”.
